Measurements reported in patent publication US20200063210A1, “Gene Expression Signatures Associated with Patient Response to Acute Myeloid Leukemia Treatment and Use Thereof for Predicting Response to Therapy” (WAKE FOREST UNIVERSITY HEALTH SCIENCES, priority 2016, published 2020).

Tests used:
[1] = system: relapsed or refractory AML; test: Phase I study of CPI-613 in combination with high dose cytarabine and mitoxantrone; assay type: in vivo, human
Excerpt: FIGS. 8A-8B. Survival compared to historical cohort. CPI-HAM survival in the evaluable population compared to a historical cohort. (FIG. 8A) Kaplan-Meier curve of overall survival of elderly AML patients treated with high dose cytarabine, mitoxantrone, and CPI-613 (CPI-HAM) or a historical cohort of poor risk relapsed or refractory patients treated with high dose cytarabine, mitoxantrone, and asparaginase (HAMA). (FIG. 8B) Kaplan-Meier curve of overall survival of poor risk, relapsed or refractory AML patients treated with high dose cytarabine, mitoxantrone, and CPI-613 (CPI-HAM) or a historical cohort of poor risk relapsed or refractory patients treated with high dose cytarabine, mitoxantrone, and asparaginase (HAMA). Kaplan-Meier estimates were compared by log-rank test.
In a recently completed phase I study, CPI-613 was given in combination with high dose cytarabine and mitoxantrone to patients with relapsed or refractory AML (FIGS. 6-7). In this trial, 67 patients were enrolled and 62 were evaluable. […] The median age was 60 years (range 21-79). In patients with relapsed disease the median duration of CR1 was 11.2 months. Cytogenetics were poor risk in 27 patients, intermediate in 33, and good in 6. In the 62 evaluable patients the results were as follows. The overall response rate was 50% (26CR+5CRi) with a median survival of 6.7 months. […] When compared to historical controls treated with the same chemotherapy without CPI-613 an increase in response rate was seen. […] Additionally, the median survival of the historical patients was only 2.8 months while the median survival in the CPI-613 treated patients was 5.5 months (FIG. 8B). […] In patients >60 years old the CR/CRi rate was 47% (15/32) with a median survival of 6.9 months (FIG. 8A).

PDH = PDH phosphorylation in patient blood samples before and after CPI-613 infusion; assay type: in vivo, human; conditions: three patients
Procedure: (§1) Several patients had blood samples taken before and after CPI-613 infusion. […] The role of AMPK in response was assessed by competition assays using Cas-9 expressing AML cells that have deleted AMPK (FIG. 9B).

AMPK = AMPK phosphorylation blot of patient mononuclear cells after CPI-613 infusion; assay type: in vivo, human; conditions: two patients, day one after infusion
Procedure: (§2) FIGS. 9A-9C. AMPK Contributes to Resistance to CPI-613. (FIG. 9A) CPI-613 induces AMPK phosphorylation. Blood samples were taken on day one of treatment at the indicated time points following infusion of CPI-613. Red blood cells were lysed, and mononuclear cells were isolated. Extracts were prepared and blotted for phosphorylated AMPK. Both patients had circulating blasts at the time of sampling. Actin was used as a loading control. (FIG. 9B) Competition assay. Cas9 expressing MFL2 cells were partially infected with an sgRNA vector targeting AMPK tagged with GFP. Cells were incubated with the indicated drug for 72 hours and the % GFP+determined in the viable population. (FIG. 9C) Viability assay. Clones of Cas9 expressing MFL2 cells with sgRNAs targeting AMPK or ROSA26 were incubated with the indicated drug for 72 hours and viability determined.
as §1

[2] = system: AMPK deleted MFL2 AML cells; test: Competition assay, Cas9 expressing MFL2 cells with sgRNA targeting AMPK; assay type: cell-based; conditions: 72 hours with drug, % GFP+ in the viable population
Procedure: as §2, §1

Murine AML cells (M1p5) = test: Viability of M1p5 AML cells expressing p53 shRNA or vector control; assay type: cell-based; conditions: 72 hours; for response of p53 shRNA cells compared to vector controls (viability): single agent
Procedure: FIGS. 10A-10C. CPI-613 induces chemotherapy sensitivity in p53 suppressed AML cells. (FIG. 10A) Murine AML cells (M1p5) expressing an shRNA against p53 (p53 shRNA) or vector control (GFP Control) were exposed to the indicated amount of CPI-613 (in μmoles). After 72 hours viability was determined and compared to untreated cells. (FIG. 10B) Murine AML cells (M1p5) expressing an shRNA against p53 (p53 shRNA) or vector control (GFP Control) were exposed to the indicated amount of doxorubicin (in nmoles). After 72 hours viability was determined and compared to untreated cells. (FIG. 10C) Murine AML cells (M1p5) expressing an shRNA against p53 (p53 shRNA) or vector control (GFP Control) were exposed to 50 μM CPI-613 and 2.5, 5, or 10 nM Doxorubicin for 72 hours. Following exposure viability was assessed and compared to untreated cells.
Loss of p53 is associated with poor risk cytogenetics, poor prognosis and resistance to chemotherapy but not resistance to CPI-613. In AML patients poor risk karyotypes are associated with p53 loss or mutation in 70-80% of cases (13, 29). Indeed it has been argued that much of the prognostic importance of poor risk karyotypes is mediated by p53 loss (13). This is not surprising given the association between p53 status and response to chemotherapy in AML (30). In order to assess the consequences of p53 suppression on mitochondrial inhibition we generated murine AML cells that knocked down p53 by shRNA.

Baf3-p210 cells = test: Survival of Balb/c mice injected with Baf3-p210 cells; assay type: in vivo; conditions: CPI at 250 mg/kg plus Doxorubicin at 3 mg/kg, day 3
Procedure: FIG. 4. […] Balb/c mice were injected with Baf3-p210 cells and on day 3 treated with saline (control), Doxorubicin at 3 mg/kg or CPI at 250 mg/kg plus doxorubicin. Dox=Doxorubicin, CPI=CPI-613. P value shown is for Dox vs CPI-Dox.

AML cell lines = test: AML cell growth under mitochondrial inhibition; assay type: cell-based, human and murine; conditions: for AML cell growth: multiple human and murine cell lines, single agent
[3] = system: advanced myeloid malignancies; conditions: single agent; heavily pre-treated cohort; cited from earlier work
K562 cells = test: Oxygen consumption rate after Ara-C, K562; assay type: cell-based; conditions: Ara-C for 16 hours
Procedure: (§3) FIGS. 2A-2B. […] K562 cells (FIG. 2A) and OCI-AML3 (FIG. 2B) and were treated with Ara-C for 16 hours and oxygen consumption rate (OCR) was assessed. Shown is the average OCR from 3 independent experiments each done in triplicate. P value for OCI-AML3 is 0.0387 and for K562 is <0.0001.

OCI-AML3 = test: Oxygen consumption rate after Ara-C, OCI-AML3; assay type: cell-based; conditions: Ara-C for 16 hours
Procedure: as §3

[4] = 62 evaluable patients, CPI-613 with high dose cytarabine and mitoxantrone

O=C(O)CCCCC(CCSCc1ccccc1)SCc1ccccc1 (stereo not shown) [CPI-613]
median survival [1, 4]: 6.7 months | overall response rate (CR+CRi) [1, 4]: 50% | CR/CRi rate, patients >60 years old ([1]; patients >60 years old (15/32)): 47% | median survival, patients >60 years old ([1]; patients >60 years old (FIG. 8A)): 6.9 months | median survival for all others ([1]; patients without response, CPI-613 with high dose cytarabine and mitoxantrone): 3 months | median survival, poor risk ([1]; poor risk CPI-613 treated patients (FIG. 8B)): 5.5 months | response rate, poor risk cytogenetics ([1]; poor risk cytogenetics (9CR+2CRi/24), CPI-613 with high dose cytarabine and mitoxantrone): 46% | response rate versus historical controls, poor risk disease ([1]; poor risk disease, compared with the same chemotherapy without CPI-613): more than doubled | median survival in responders ([1]; responders, CPI-613 with high dose cytarabine and mitoxantrone): 13.2 months | phosphorylation of PDH (PDH): increased phosphorylation of PDH | phosphorylation of AMPK (AMPK): robust phosphorylation of AMPK | competition of normal versus AMPK deleted cells [2]: Normal cells out-competed AMPK deleted cells | sensitivity of p53 shRNA cells to doxorubicin in presence of CPI-613 (Murine AML cells (M1p5); 50 μM CPI-613 and 2.5, 5, or 10 nM Doxorubicin): increased sensitivity to doxorubicin to that of the controls | response of p53 shRNA cells compared to vector controls (viability) (Murine AML cells (M1p5)): no change in response | combination effect with doxorubicin in vivo (Baf3-p210 cells): acts synergistically with doxorubicin in vivo | AML cell growth (AML cell lines): impairs AML cell growth | combination effect of metformin and CPI-613 (AML cell lines; the two together): synergistic in vitro and in vivo | overall response rate [3]: 29%

Nc1ccn([C@@H]2O[C@H](CO)[C@@H](O)[C@@H]2O)c(=O)n1 [cytarabine]
oxygen consumption rate (OCR) (K562 cells): induces mitochondrial metabolism | oxygen consumption rate (OCR) (OCI-AML3): induces mitochondrial metabolism

COc1cccc2c1C(=O)c1c(O)c3c(c(O)c1C2=O)C[C@@](O)(C(=O)CO)C[C@@H]3O[C@H]1C[C@H](N)[C@H](O)[C@H](C)O1 [doxorubicin]
response of p53 shRNA cells compared to vector controls (viability) (Murine AML cells (M1p5)): significantly resistant

CN(C)C(=N)N=C(N)N [metformin]
AML cell growth (AML cell lines): impairs AML cell growth
